The record followed here is patent US12617773B2, “Azetidin-3-ylmethanol derivatives as CCR6 receptor modulators” (Idorsia Pharmaceuticals Ltd, priority 2020, dated 2026).

This test addresses T1, human CCR6 (Homo sapiens, UniProt P51684).
T1 construct: expressed in transfected cells; host or cells: HEK-293
T1 sequence (P51684 1-374): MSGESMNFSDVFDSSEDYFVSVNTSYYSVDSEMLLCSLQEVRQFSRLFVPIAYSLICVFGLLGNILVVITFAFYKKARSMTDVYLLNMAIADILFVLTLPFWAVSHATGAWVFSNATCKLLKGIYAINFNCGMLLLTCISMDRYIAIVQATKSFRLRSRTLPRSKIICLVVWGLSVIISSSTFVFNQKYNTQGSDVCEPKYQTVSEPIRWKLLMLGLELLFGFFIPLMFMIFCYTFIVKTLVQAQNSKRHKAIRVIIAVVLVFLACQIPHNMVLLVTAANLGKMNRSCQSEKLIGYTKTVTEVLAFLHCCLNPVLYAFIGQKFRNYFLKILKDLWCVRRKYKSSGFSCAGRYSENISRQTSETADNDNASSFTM
Kind of test: FLIPR assay (inhibition of CCL20-induced calcium signal). To be noted: HEK-293 cells expressing human CCR6; mean values where determined several times; read-out: FLIPR IC50. Format: cell-based. The method, boiled down: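 IC50 values come from baseline-corrected peak calcium fluorescence after agonist. The agonist was CCL20 at 10 nM final, added to engineered human CCR6 HEK-293 cells following a 30-min, room-temperature, dark preincubation with serially diluted compound. Readings were taken in a fluorometric imaging plate reader.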
As usually defined, the IC50 is the midpoint of a concentration-inhibition curve. For the compound `CC(C)c1ccc([C@](O)(c2cncc(-c3noc(C4(F)CCOCC4)n3)c2)C2(C)CN(C)C2)cc1` [Example 124], the IC50 was found to be 0.0359 µM.
For the compound `CC(C)c1ccc([C@](O)(c2cncc(C#CC(C)(O)c3ccnc(C(F)(F)F)n3)c2)C2(C)CN(C)C2)cc1` (single isomer, unassigned) [Example 653], the IC50 was found to be 0.0101 µM.
For the compound `CC(C)c1ccc([C@](O)(c2cncc(CC#CO)c2)C2(C)CN(C)C2)cc1` [Example 14, 3-{5-[(R)-(1,3-Dimethyl-azetidin-3-yl)-hydroxy-(4-isopropyl-phenyl)-methyl]-pyridin-3-yl}-prop-1-yn-1-ol], the IC50 was found to be 0.0706 µM.
As to `CC(=O)NC1(Cc2nc(-c3cncc([C@@](O)(c4ccc(C(C)C)cc4)C4(C)CN(C)C4)c3)no2)CC1` [Example 460, N-[1-(3-{5-[(R)-(1,3-Dimethyl-azetidin-3-yl)-hydroxy-(4-isopropyl-phenyl)-methyl]-pyridin-3-yl}-[1,2,4]oxadiazol-5-ylmethyl)-cyclopropyl]-acetamide], the IC50 was 0.469 µM.
With `CC(C)c1ccc([C@](O)(c2cncc(N3CC(c4ccc(C(F)(F)F)nc4)CC3=O)c2)C2(C)CN(C)C2)cc1` (some centres unmarked) [Example 675], the IC50 stood at 0.227 µM.
`COC1CN(C(C)=O)CCC1c1nc(-c2cncc([C@@](O)(c3ccc(C(C)C)cc3)C3(C)CN(C)C3)c2)no1` (stereo partly drawn) [Example 500, 1-[4-(3-{5-[(R)-(1,3-Dimethyl-azetidin-3-yl)-hydroxy-(4-isopropyl-phenyl)-methyl]-pyridin-3-yl}-[1,2,4]oxadiazol-5-yl)-3-methoxy-piperidin-1-yl]-ethanone]: the IC50 amounted to 0.149 µM.
Turning to `CC(C)C[C@H]1CC(=O)N(c2cncc([C@@](O)(c3ccc(C(C)C)cc3)C3(C)CN(C)C3)c2)C1` [Example 217], the IC50 is 0.0433 µM.
The value for `CCc1ccc([C@](O)(c2cncc(C#CC(C)(O)c3cccc(C)n3)c2)C2(C)CN(C)C2)cc1` (some centres unmarked) [Example 657] was 0.0866 µM; that for `CN1CC(C)([C@](O)(c2ccc(C3(C(F)(F)F)CC3)cc2)c2cncc(N3CC[C@H](C(C)(C)O)C3)c2)C1` [Example 186] was 0.0435 µM; that for `CC(C)c1ccc([C@](O)(c2cncc(C#CC(O)c3ccccc3)c2)C2(C)CN(C)C2)cc1` (some centres unmarked) [Example 24] was 0.00644 µM.
The value for `Cc1cccc(C(C)(O)C#Cc2cncc([C@@](O)(c3ccc(CC(F)(F)F)cc3)C3(C)CN(C)C3)c2)n1` (some centres unmarked) [Example 660] was 0.0824 µM.
On to `CC(C)c1ccc([C@](O)(c2cncc(-c3noc(C4CCC(=O)N(C)C4)n3)c2)C2(C)CN(C)C2)cc1` (stereo partly drawn) [Example 479, 5-(3-{5-[(R)-(1,3-Dimethyl-azetidin-3-yl)-hydroxy-(4-isopropyl-phenyl)-methyl]-pyridin-3-yl}-[1,2,4]oxadiazol-5-yl)-1-methyl-piperidin-2-one], for which the IC50 was found to be 0.112 µM.
For the compound `CC(C)NC(=O)OCc1cncc([C@@](O)(c2ccc(C(C)C)cc2)C2(C)CN(C)C2)c1` [Example 325, Isopropyl-carbamic acid 5-[(R)-(1,3-dimethyl-azetidin-3-yl)-hydroxy-(4-isopropyl-phenyl)-methyl]-pyridin-3-ylmethyl ester], the IC50 worked out at 0.595 µM.
For `CC(C)c1ccc([C@](O)(c2cncc(CCC(C)(O)c3ccn(C)n3)c2)C2(C)CN(C)C2)cc1` (some centres unmarked) [Example 70], the IC50 turned out to be 0.434 µM.
As for `CC(=O)N1CCC(C)(C#Cc2cncc([C@@](O)(c3ccc(C(C)C)cc3)C3(C)CN(C)C3)c2)CC1` [Example 602], the IC50 turned out to be 0.0395 µM.
The value for `CC(=O)N1CCC(c2nc(-c3cncc([C@@](O)(c4ccc(C(C)C)cc4)C4(C)CN(CCO)C4)c3)no2)CC1` [Example 580, 1-[4-(3-{5-[(R)-Hydroxy-[1-(2-hydroxy-ethyl)-3-methyl-azetidin-3-yl]-(4-isopropyl-phenyl)-methyl]-pyridin-3-yl}[1,2,4]oxadiazol-5-yl)-piperidin-1-yl]-ethanone] was 0.294 µM; that for `CC(C)c1ccc([C@](O)(c2cncc(-c3nc(C4CCN(C(=O)CO)CC4)no3)c2)C2(C)CN(C)C2)cc1` [Example 529, 1-[4-(5-{5-[(R)-(1,3-Dimethyl-azetidin-3-yl)-hydroxy-(4-isopropyl-phenyl)-methyl]-pyridin-3-yl}-[1,2,4]oxadiazol-3-yl)-piperidin-1-yl]-2-hydroxy-ethanone] was 0.134 µM; that for `CC(C)c1ccc([C@](O)(c2cncc(-c3noc(CN4C(=O)CN(C)C4=O)n3)c2)C2(C)CN(C)C2)cc1` [Example 487] was 0.248 µM.
Consider `CC(C)C(=O)NC(C)(C)Cc1nc(-c2cncc([C@@](O)(c3ccc(C(C)C)cc3)C3(C)CN(C)C3)c2)no1` [Example 467], for which the IC50 was found to be 0.129 µM.
For `CC(C)c1ccc([C@](O)(c2cnnc(N3CC4(CCOCC4)CC3=O)c2)C2(C)CN(C)C2)cc1` [Example 439], the IC50 is 0.265 µM.
Take `CC(=O)N1CCC[C@]1(C)C#Cc1cncc([C@@](O)(c2ccc(C(C)C)cc2)C2(C)CN(C)C2)c1` [Example 596]: the IC50 is 0.117 µM.
As for `COC1(c2nc(-c3cncc([C@@](O)(c4ccc(C(C)C)cc4)C4(C)CN(C)C4)c3)no2)CCC1` [Example 113], the 50% inhibitory concentration (IC50) was 0.0298 µM.
With `CC(=O)N1CCC[C@]1(C)CCc1cncc([C@@](O)(c2ccc(C(C)C)cc2)C2(C)CN(C)C2)c1` [Example 642], the IC50 came out at 0.277 µM.
Take `CC(C)c1ccc([C@](O)(c2cncc(N3CC(c4cnn(C(F)F)c4)CC3=O)c2)C2(C)CN(C)C2)cc1` (some centres unmarked) [Example 678]: the concentration for half-maximal inhibition (IC50) was determined as 0.156 µM.
With `CN1CC(C)(C(O)(c2ccccc2)c2cncc(N3CCCC3)c2)C1` (centres unmarked) [Example 153], the IC50 came to 0.214 µM.
In the case of `CC(C)c1ccc(C(O)(c2cncc(C3CCC(O)C3)c2)C2(C)CN(C)C2)cc1` (centres unmarked) [Example 292] it was 0.748 µM.
Take `Cc1cnc(C(C)(O)CCc2cncc([C@@](O)(c3ccc(C(C)C)cc3)C3(C)CN(C)C3)c2)cn1` (some centres unmarked) [Example 646]: the IC50 came out at 0.129 µM.
Take `CC(C)c1ccc([C@](O)(c2ccnc(CCC(C)(C)O)c2)C2(C)CN(C)C2)cc1` [Example 165, 4-{4-[(S)-(1,3-Dimethyl-azetidin-3-yl)-hydroxy-(4-isopropyl-phenyl)-methyl]-pyridin-2-yl}-2-methyl-butan-2-ol]: the IC50 amounted to 0.677 µM.
Consider `CC(C)c1ccc([C@](O)(c2cncc(N(C)CCOCc3ccccc3)c2)C2(C)CN(C)C2)cc1` [Example 183], for which the IC50 was found to be 0.0317 µM.
For `COc1cc(C(C)(O)C#Cc2cncc([C@@](O)(c3ccc(C(C)C)cc3)C3(C)CN(C)C3)c2)nc(C)n1` (single isomer, unassigned) [Example 630], the IC50 is 0.0611 µM.
Regarding `CC(C)c1ccc([C@](O)(c2cncc(OC3CCOCC3)c2)C2(C)CN(C)C2)cc1` [Example 259], the IC50 is 0.0567 µM.
As for `CC(C)c1ccc([C@](O)(c2cncc(C#CC3(O)C(=O)N(C)c4ccccc43)c2)C2(C)CN(C)C2)cc1` (some centres unmarked) [Example 612], the IC50 turned out to be 0.0585 µM.
`CC(C)c1ccc([C@](O)(c2cncc(C#CC(C)(O)c3n[nH]c4ccccc34)c2)C2(C)CN(C)C2)cc1` (some centres unmarked) [Example 613]: the IC50 worked out at 0.0111 µM.
As to `CC(=O)N1CCC(C)(c2nc(-c3cncc([C@@](O)(c4ccc(C(C)C)cc4)C4(C)CN(C)C4)c3)no2)CC1` [Example 423], the IC50 turned out to be 0.0618 µM.
In the case of `CN1CC(C)(C(O)(c2ccc(OC(F)(F)F)cc2)c2ccc(OCc3ccccc3)nc2)C1` (centres unmarked) [Example 264], the IC50 was 0.167 µM.
On to `CC(C)c1ccc([C@](O)(c2cnnc(N3CC4(CCCCC4)OC3=O)c2)C2(C)CN(C)C2)cc1` [Example 440], for which the IC50 turned out to be 0.0507 µM.
Take `CC(C)c1ccc([C@](O)(c2cncc(CCC3(O)CCCC3)c2)C2(C)CN(C)C2)cc1` [Example 53]: the half-inhibitory concentration (IC50) stood at 0.0463 µM.
With `COCCC1CCN(c2cncc([C@@](O)(c3ccc(C(C)C)cc3)C3(C)CN(C)C3)c2)C1=O` (some centres unmarked) [Example 220], the IC50 was found to be 0.214 µM.
In the case of `CC(C)c1ccc(C(O)(c2ccnc(N3CCCCC3)c2)C2(C)CN(C)C2)cc1` (centres unmarked) [Example 275] it was 0.0671 µM.
Regarding `CC(C)c1ccc([C@](O)(c2cncc(CCC(C)(C)N3CCNC3=O)c2)C2(C)CN(C)C2)cc1` [Example 641], the IC50 is 0.067 µM.
For `CNS(=O)(=O)N1CCC(c2nc(-c3cncc([C@@](O)(c4ccc(C(C)C)cc4)C4(C)CN(C)C4)c3)no2)CC1` [Example 388], the IC50 worked out at 0.0282 µM.
With `CC(C)c1ccc([C@](O)(c2cncc(-c3noc(CC#N)n3)c2)C2(C)CN(C)C2)cc1` [Example 497], the IC50 is 0.0743 µM.
With `CC(C)c1ccc([C@](O)(c2cncc(CCC(C)(O)c3n[nH]c4ccccc34)c2)C2(C)CN(C)C2)cc1` (some centres unmarked) [Example 643], the IC50 was 0.0169 µM.
On to `Cc1nc(C(O)C#Cc2cncc([C@@](O)(c3ccc(C(C)C)cc3)C3(C)CN(C)C3)c2)cs1` (some centres unmarked) [Example 31], for which the IC50 was determined as 0.0812 µM.
`Cc1cc([C@](O)(c2cncc(-c3noc(C(C)(C)O)n3)c2)C2(C)CN(C)C2)ccc1C(C)C` [Example 544]: the IC50 was determined as 0.257 µM.
In the case of `CCCC(=O)N1CCC(c2nc(-c3cncc([C@@](O)(c4ccc(C(C)C)cc4)C4(C)CN(C)C4)c3)no2)CC1` [Example 370, 1-[4-(3-{5-[(R)-(1,3-Dimethyl-azetidin-3-yl)-hydroxy-(4-isopropyl-phenyl)-methyl]-pyridin-3-yl}-[1,2,4]oxadiazol-5-yl)-piperidin-1-yl]-butan-1-one] it was 0.0659 µM.
For `CC(C)c1ccc([C@](O)(c2cncc(C#C[C@@H](C)O)c2)C2(C)CN(C)C2)cc1` [Example 16], the IC50 turned out to be 0.052 µM.
